The text below walks through data of patent US7045147B1, “Controlled release peroral compositions of levosimendan” (Orion Corporation, priority 1998, dated 2006).

Data set [1] in a line: Pharmacokinetics of levosimendan and its active metabolite (elimination half-life, absorption). It is filed as in vivo, human. As to conditions: active first-pass metabolite of levosimendan. The source says: The hemodynamic effects of levosimendan in man are described in Sundberg, S. et al., Am. J. Cardiol., 1995; 75: 1061-1066. Pharmacokinetics of levosimendan in man after i.v. and oral dosing is described in Sandell, E. -P. et al., J. Cardiovasc. Pharmacol., 26(Suppl. I), S57-S62, 1995. The use of levosimendan in the treatment of myocardial ischemia is described in WO 93/21921. Clinical studies have confirmed the beneficial effects of levosimendan in heart failure patients.
Firstly, the elimination half-life of levosimendan in human is short, about 1 h. Therefore, using conventional immediate release oral formulations levosimendan should be administered frequently during the day. Secondly, the gastrointestinal absorption of levosimendan is rapid. Therefore, using immediate release oral formulations high peak plasma concentrations of levosimendan are reached rapidly and abruptly, typically within 1 hour. High plasma concentrations of levosimendan tend to increase heart rate which is an undesired effect in heart failure patients.
The discovery of the active metabolite and its formation route makes it now possible to design controlled release preparations which show a reduced occurrence of undesired effects and which are well suited for the treatment of heart failure patients.

Data set [2] is described as follows: Steady-state clinical study: plasma levels of levosimendan and metabolite (II) after 7 days levosimendan administration. The following applies: human, po, 1 mg levosimendan orally three times a day for 7 days, healthy volunteers, formulation as Formulation 3 except 1 mg levosimendan and Avicel PH-200 51.0 mg, N 14, read-out: Mean plasma level of levosimendan (day 7). It is filed as in vivo. As for the experimental part: The steady-state plasma level for metabolite (II) can be measured for any composition by administering the composition of levosimendan to a volunteer or group of volunteers once or several times a day for several days until a steady state level of (II) is reached. The plasma levels of the active metabolite (II) can then be measured according to the procedure described in detail in Example 2.
The active metabolite (II) is added in 20 μl of phosphate buffer, pH 7.2 to 0.5 ml of analyte-free plasma. The amounts of analyte added are 0.100, 0.250, 0.500, 1.00, 2.50, 3.75, 5.00, 7.50 and 12.5 ng. After being vortexed for 20 seconds and left standing for 10 minutes, the 2500 pg of internal standard (R)-N-[4-(1,4,5,6-tetrahydro-4-ethyl-6-oxo-3-pyridazinyl)phenyl]acetamide is added in 20 μl of phosphate buffer, pH 7.2. The mixture is vortexed for 1 minute and left standing for 15 minutes. The calibration samples are alkalised with 50 μl of 0.1 M sodium hydroxide and vortexed for 20 seconds. […]
Determinations are carried out by using the selected reaction monitoring technique. […] The selected reaction monitoring chromatograms are recorded using a PE Sciex API 300 Data System.
Peak area ratios of analyte and its internal standard are plotted against concentrations. […] The limit of quantitation is 0.200 ng/ml. […]

The conditions of data set [3]: cited from earlier work.

With `CC(=O)Nc1ccc(C2=NNC(=O)C[C@H]2C)cc1` [Metabolite (II), (R)-N-[4-(1,4,5,6-tetrahydro-4-methyl-6-oxo-3-pyridazinyl)phenyl]acetamide], in data set [1], the “elimination half-life compared with levosimendan” value was “substantially longer than that of levosimendan”.

Regarding `CC1CC(=O)NN=C1c1ccc(NN=C(C#N)C#N)cc1` (single isomer, unassigned; (-)) [Levosimendan, (−)-[[4-(1,4,5,6-tetrahydro-4-methyl-6-oxo-3-pyridazinyl)phenyl]hydrazono]propanedinitrile], in data set [2] (1 h after the last dose (day 7)), the concentration at 1 h amounted to 15.4 ng/mL. Moreover, the concentration at 4 h in data set [2] (4 h after the last dose (day 7)) is 8.9 ng/mL. For the same compound, the “time to reach peak plasma concentrations” value in data set [3] (immediate release oral formulations) was no more than 1 h. The elimination half-life entry in data set [3] (in human) was “about 1 h”.
